Data taken from ChEMBL document CHEMBL1201862, “PubChem BioAssay data set” (2004).
The source made the active and inactive calls.

Columns and labels:
[1] = biological target: RNA-editing ligase 1, mitochondrial (Trypanosoma brucei brucei, UniProt P86926); test: inhibition of trypanosome RNA editing ligase – biochemical, fluorescence, Trypanosoma brucei, dose response (AID 1117295); assay type: functional
[2] = biological target: T1, NAD-dependent protein deacylase sirtuin-5, mitochondrial (Homo sapiens, UniProt Q9NXA8); test: sirtuin-5 deacylation blockers, concentration series – biochemical, fluorescence imaging, cherry-pick, set 5, dose response (AID 720591);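 also: desuccinylation of succinyl peptide AMC substrate read as fluorescence after trypsin release; potency of inhibitors that lower fluorescence and may act on trypsin instead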
T1 sequence (Q9NXA8 whole entry): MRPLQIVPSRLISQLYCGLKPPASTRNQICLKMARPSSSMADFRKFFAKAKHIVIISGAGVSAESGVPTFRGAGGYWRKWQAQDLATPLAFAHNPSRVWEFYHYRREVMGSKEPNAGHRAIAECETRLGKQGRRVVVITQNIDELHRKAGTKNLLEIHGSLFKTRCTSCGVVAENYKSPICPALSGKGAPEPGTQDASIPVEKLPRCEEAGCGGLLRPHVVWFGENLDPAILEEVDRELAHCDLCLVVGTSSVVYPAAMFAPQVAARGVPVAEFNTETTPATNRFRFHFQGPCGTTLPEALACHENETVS

[3] = cytotoxicity in MITF-independent A375 cells – cell-based, CellTiter-Glo luminescence, dry powder, set 4, counter-screen for MITF inhibitor project, dose response (AID 624364); assay type: functional; details: A-375;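 also: A375 melanoma cells are MITF independent so this is a counter screen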
[4] = viability loss in MITF-independent A375 cells – cell-based, CellTiter-Glo luminescence, dry powder, set 2, counter-screen for MITF inhibitor project, dose response (AID 624489); assay type: functional; details: A-375;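 also: actives are compounds lowering A375 viability meaning general cytotoxicity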
[5] = biological target: T2, Oxysterols receptor LXR-beta (Homo sapiens, UniProt P55055); assay type: functional, cell-based;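 also: Cell-based luminescence dose-response assay of agonist activity at LXR, run as a confirmatory counterscreen to a daf-12 agonist screen; HEK293 cells with Gal4-LXR fusion and GAL4-driven luciferase reporter; agonist potency from rising luciferase signal of a Gal4-LXR reporter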
T2 sequence (P55055 whole entry): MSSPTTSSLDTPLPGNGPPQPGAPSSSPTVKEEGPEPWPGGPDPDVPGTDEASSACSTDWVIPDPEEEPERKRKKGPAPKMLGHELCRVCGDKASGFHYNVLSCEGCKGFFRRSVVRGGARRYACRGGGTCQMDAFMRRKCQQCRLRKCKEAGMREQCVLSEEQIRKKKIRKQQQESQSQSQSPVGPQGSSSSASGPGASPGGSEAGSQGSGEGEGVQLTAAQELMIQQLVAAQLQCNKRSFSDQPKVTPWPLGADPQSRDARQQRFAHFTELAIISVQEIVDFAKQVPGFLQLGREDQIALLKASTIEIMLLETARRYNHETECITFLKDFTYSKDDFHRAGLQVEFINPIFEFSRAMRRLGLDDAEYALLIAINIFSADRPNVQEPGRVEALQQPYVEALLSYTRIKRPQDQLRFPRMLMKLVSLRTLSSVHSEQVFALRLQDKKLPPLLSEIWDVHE

cells [6] = test: cells
[7] = viability loss in HEK293 cells – cell-based, plate reader, cherry-picked samples, cytotoxicity control, dose response (AID 743446); assay type: functional
[8] = blockade of melanocortin 4 receptor signaling – cell-based, plate reader, cherry pick, counter-screen for LGR2 antagonist project, dose response (AID 743444); assay type: functional;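 also: transfected HEK 293 cells stimulated with alpha-MSH peptide; potency of inhibitors of the alpha-MSH evoked signal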
[9] = toxicity toward HepG2 liver cells – cell-based, plate reader, cherry-pick, antagonist series, cytotoxicity control, dose response (AID 743416); assay type: functional
[10] = P. falciparum Dd2 growth inhibitors, dose response, SYBR Green, cherry-picked samples (AID 1159567); assay type: functional, cell-based
[11] = A549 cell cytotoxicity, dose response, cytotoxicity control, plate reader, cherry-pick, antagonist series (AID 743412); assay type: functional, cell-based
[12] = toxicity to human HepG2 hepatoma cells – cell-based, plate reader, dry powder samples, cytotoxicity control, dose response (AID 1159569); assay type: functional;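 also: inhibitor potency with signal falling toward the positive control level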
[13] = Dd2 malaria parasite growth inhibition potency – SYBR Green, dry powder samples, dose response (AID 1159566); assay type: functional, cell-based;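 also: potency for growth inhibition with lower SYBR green DNA signal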
[14] = blockers of bursicon-stimulated LGR2 cAMP reporter – cell-based, HEK293, CRE-luciferase reporter, cherry pick, set 2, dose response (AID 743343); assay type: functional;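 also: transfected cells were stimulated with diluted bursicon conditioned medium after compound addition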
[15] = growth inhibition of PfATP4-mutant resistant parasites – NITD609-resistant line, SYBR Green, dry powder, dose response (AID 1159571); assay type: functional, cell-based;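 also: parasites synchronized at ring stage by sorbitol before testing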
[16] = growth inhibition of yeast DHODH-expressing 3D7 parasites – SYBR Green, dry powder samples, dose response (AID 1159570); assay type: functional, cell-based;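 also: parasite growth measured after 72 hours of compound exposure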
Transthyretin = Transthyretin (Homo sapiens, UniProt P02766); test: Luminescence-based cell-based high throughput dose response assay to identify activators of Transthyretin (TTR) transcription.; assay type: functional
[17] = biological target: T3, RNA-binding protein pos-1 (Caenorhabditis elegans, UniProt G5EF15); test: disruptors of C. elegans POS-1 RNA interaction – biochemical, fluorescence polarization, dose response (AID 1964);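 also: purified POS-1 fused to maltose binding protein made in E. coli; potency of compounds blocking POS-1 binding to fluorescent RNA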
T3 sequence (G5EF15 whole entry): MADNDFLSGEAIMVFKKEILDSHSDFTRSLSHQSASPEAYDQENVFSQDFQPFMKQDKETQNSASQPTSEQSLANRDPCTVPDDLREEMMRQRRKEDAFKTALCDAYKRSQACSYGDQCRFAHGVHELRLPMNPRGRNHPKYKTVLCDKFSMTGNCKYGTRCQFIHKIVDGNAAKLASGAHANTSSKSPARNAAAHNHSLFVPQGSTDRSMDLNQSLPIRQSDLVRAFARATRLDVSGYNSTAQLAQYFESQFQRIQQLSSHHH

[18] = biological target: T4, Zinc finger protein mex-5 (Caenorhabditis elegans, UniProt Q9XUB2); test: potency of MEX-5 RNA-binding blockers – biochemical, C. elegans, fluorescence polarization, dose response (AID 1960)
T4 sequence (Q9XUB2 whole entry): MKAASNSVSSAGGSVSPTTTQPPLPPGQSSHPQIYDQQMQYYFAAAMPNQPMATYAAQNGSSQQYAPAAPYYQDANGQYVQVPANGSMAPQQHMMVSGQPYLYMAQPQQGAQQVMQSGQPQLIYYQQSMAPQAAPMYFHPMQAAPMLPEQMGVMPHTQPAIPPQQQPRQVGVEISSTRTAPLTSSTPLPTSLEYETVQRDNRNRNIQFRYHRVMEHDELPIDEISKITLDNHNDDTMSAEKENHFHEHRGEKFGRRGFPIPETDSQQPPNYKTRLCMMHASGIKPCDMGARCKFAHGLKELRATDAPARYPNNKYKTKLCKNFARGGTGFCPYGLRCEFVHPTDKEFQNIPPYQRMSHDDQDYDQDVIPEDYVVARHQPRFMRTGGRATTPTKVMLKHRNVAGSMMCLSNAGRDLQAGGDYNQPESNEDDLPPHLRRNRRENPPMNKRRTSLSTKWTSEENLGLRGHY

[19] = alpha-synuclein stem-loop translation blockers – luminescence, H4 neuroglioblastoma cells, dose confirmation, confirmation (AID 2454); assay type: functional, cell-based;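 also: H4 neuroglioblastoma cells carrying an alpha-synuclein 5'UTR luciferase reporter; potency for inhibition of the luciferase signal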
BJ [20] = test: BJ-TERT-LT-ST fibroblast viability loss – cell-based, RAS-independent, luminescence, dose response (AID 1935); assay type: functional; details: Homo sapiens;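 also: BJ fibroblasts immortalized with TERT plus LT and ST oncogenes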
BJ [21] = test: cells; assay type: functional, cell-based; details: Homo sapiens
[22] = luciferase reporter signal suppression in cells – H4 neuroglioma cells, luminescence, dose response (AID 1990); assay type: functional, cell-based
cells [23] = assay type: functional, cell-based
[24] = alpha-synuclein stem-loop luciferase translation blockers – H4 neuroglioma cells, luminescence, confirmation (AID 1988); assay type: functional, cell-based
[25] = toxicity toward HEK293 cells – cell-based, dry powder samples, cytotoxicity control, dose response (AID 720567); assay type: functional
BJ [26] = test: BJ-TERT fibroblast viability loss – cell-based, RAS-independent, luminescence, dose response (AID 1933); assay type: functional; details: Homo sapiens
[27] = DRD fibroblast viability loss – cell-based, non-viral oncogenic, luminescence, dose response (AID 1934); assay type: functional; details: Homo sapiens
[28] = luciferase reporter signal reduction – luminescence, H4-C neuroglioblastoma cells, dose response (AID 2458); assay type: functional, cell-based;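 also: H4 neuroglioblastoma cells stably carrying a luciferase reporter gene fusion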
[29] = Luminescence Cell-Based Dose Response HTS to Identify Inhibitors of 5'UTR Stem-Loop Driven Prion Protein mRNA Translation in H4 Neuroglioblastoma Cells. [Related pubchem assays: 1827 (Project Summary), 1813 (Primary HTS)]; assay type: functional
[30] = toxicity to human hepatoma HepG2 cells – cell-based, cherry-picked samples, cytotoxicity control, dose response (AID 1159577); assay type: functional
[31] = biological target: T1, NAD-dependent protein deacylase sirtuin-5, mitochondrial; test: blockers of sirtuin-5 peptide desuccinylation – biochemical, fluorescence imaging, cherry-pick, set 6, dose response (AID 720597)
[32] = toxicity toward immortalized ovarian surface epithelium – cell-based, plate reader, dry powder samples, cytotoxicity control for PAX8 inhibitor project, dose response (AID 743045); assay type: functional
Paired box protein Pax-8 = Paired box protein Pax-8 (Homo sapiens, UniProt Q06710); test: PAX8 transcriptional activity inhibition in RMG-I – RMG-I cells, luciferase, cherry-pick, dose response (AID 687027); assay type: functional, cell-based;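 also: luciferase reporter driven by Pax8 target thyroperoxidase promoter measured by SteadyGlo luminescence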
Paired box protein Pax-8, sequence (Q06710 whole entry): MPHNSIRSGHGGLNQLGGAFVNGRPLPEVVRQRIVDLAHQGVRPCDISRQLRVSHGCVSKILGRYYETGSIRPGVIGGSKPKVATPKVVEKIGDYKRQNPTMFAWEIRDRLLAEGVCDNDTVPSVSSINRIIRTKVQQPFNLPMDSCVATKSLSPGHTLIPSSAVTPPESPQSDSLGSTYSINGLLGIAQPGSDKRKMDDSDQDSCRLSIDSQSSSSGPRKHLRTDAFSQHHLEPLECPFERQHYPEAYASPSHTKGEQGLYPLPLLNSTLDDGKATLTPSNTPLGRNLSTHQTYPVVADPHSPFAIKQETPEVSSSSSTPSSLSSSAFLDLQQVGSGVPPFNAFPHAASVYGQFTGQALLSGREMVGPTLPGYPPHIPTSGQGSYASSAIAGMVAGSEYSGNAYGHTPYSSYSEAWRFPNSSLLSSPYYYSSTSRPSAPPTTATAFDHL

[33] = OVCAR8 cell viability loss – plate reader, dry powder samples, PAX8 project, dose response (AID 743197); assay type: functional, cell-based; details: OVCAR-8
[34] = OVCAR-3 cell viability loss – plate reader, dry powder samples, PAX8 inhibitor project, dose response (AID 743044); assay type: functional, cell-based
[35] = A2780 cell killing – plate reader, dry powder samples, cytotoxicity control, dose response (AID 743046); assay type: functional, cell-based
[36] = IGROV1 cell killing – plate reader, dry powder samples, PAX8 inhibitor project, dose response (AID 743043); assay type: functional, cell-based; details: IGROV-1
[37] = biological target: T5, Disintegrin and metalloproteinase domain-containing protein 17 (Homo sapiens, UniProt P78536); test: inhibition of ADAM17 substrate cleavage – biochemical, quenched FRET substrate, counter-screen for ADAM10 exosite inhibitor project, dose response (AID 743253)
T5 sequence (P78536 whole entry, the tested form may be a part): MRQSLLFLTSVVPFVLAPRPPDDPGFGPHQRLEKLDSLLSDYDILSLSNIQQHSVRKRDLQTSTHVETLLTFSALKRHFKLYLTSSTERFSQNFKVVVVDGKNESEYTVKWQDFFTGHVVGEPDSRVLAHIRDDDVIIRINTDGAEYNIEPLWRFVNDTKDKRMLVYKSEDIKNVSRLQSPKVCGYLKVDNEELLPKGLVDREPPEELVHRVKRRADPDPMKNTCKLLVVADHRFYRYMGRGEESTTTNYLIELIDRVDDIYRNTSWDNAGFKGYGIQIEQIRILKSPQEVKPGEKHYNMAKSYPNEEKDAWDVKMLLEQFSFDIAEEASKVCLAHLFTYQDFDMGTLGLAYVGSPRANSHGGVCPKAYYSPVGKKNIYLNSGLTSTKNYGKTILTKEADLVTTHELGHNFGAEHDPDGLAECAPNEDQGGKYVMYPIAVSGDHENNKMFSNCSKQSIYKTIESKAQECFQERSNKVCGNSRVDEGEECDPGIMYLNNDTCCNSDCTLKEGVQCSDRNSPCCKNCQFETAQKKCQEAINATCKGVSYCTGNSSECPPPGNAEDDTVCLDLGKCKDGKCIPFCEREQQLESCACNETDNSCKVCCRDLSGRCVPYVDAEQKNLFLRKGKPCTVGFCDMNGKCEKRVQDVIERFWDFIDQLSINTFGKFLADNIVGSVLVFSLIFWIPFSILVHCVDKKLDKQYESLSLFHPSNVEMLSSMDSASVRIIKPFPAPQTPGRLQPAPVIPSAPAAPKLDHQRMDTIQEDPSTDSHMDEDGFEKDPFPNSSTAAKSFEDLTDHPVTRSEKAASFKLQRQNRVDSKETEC

[38] = biological target: T5, Disintegrin and metalloproteinase domain-containing protein 17; test: exosite inhibitors of ADAM17, dose response, biochemical (AID 743260)
[39] = potency of ADAM10 substrate cleavage blockers – biochemical, QFRET, dose response (AID 743254);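 also: ADAM10 enzyme with the DM2 quenched FRET peptide as substrate; EDANS fluorescence gain as the protease cuts the substrate; inhibitor potency against ADAM10 proteolytic activity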

RNA-editing ligase 1, mitochondrial, sequence (P86926 whole entry): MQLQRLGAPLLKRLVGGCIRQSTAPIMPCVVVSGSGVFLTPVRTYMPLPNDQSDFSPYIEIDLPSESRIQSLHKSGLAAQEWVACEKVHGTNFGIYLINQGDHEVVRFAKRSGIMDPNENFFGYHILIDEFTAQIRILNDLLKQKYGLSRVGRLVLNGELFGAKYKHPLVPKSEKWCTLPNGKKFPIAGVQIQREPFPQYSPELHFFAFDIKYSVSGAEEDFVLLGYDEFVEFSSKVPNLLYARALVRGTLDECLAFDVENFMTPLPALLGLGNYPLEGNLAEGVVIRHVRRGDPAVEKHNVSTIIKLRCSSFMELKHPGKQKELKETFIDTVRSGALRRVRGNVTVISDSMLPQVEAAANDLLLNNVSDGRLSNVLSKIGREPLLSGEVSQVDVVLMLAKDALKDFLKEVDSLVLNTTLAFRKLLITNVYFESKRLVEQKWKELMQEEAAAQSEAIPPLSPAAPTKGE

For `NC(=O)[C@H]1CC2(CC(c3cccc(NC(=O)[C@H]4CCC(=O)N4)c3)=NO2)CN1C(=O)c1ccccc1` (stereo partly specified), the IC50 [1] was 19.7 µM (inactive).

With `COc1ccc(CC(=O)Nc2ccc(S(=O)(=O)N3CCN(C)CC3)cc2)cc1` the AC50 [2] was > 30 µM (inactive).

In the case of `CCN1CCN(C2=C(N(C)C(C)=O)C(=O)c3ccccc3C2=O)CC1`, the AC50 [3] is reported as 12.4 µM (active) and the AC50 [4] is reported as 6.2 µM (active).

With `N=C(NC(=S)Nc1ccc2c(c1)OCO2)c1ccccc1` the EC50 [5] was > 67.5 µM (inactive) and the EC50 (cells [6]) was > 67.5 µM (inactive).

For `N#Cc1ccc(-c2ccc([C@@H]3[C@@H]4CN(C(=O)C5CCC5)C[C@H]3N4)cc2)cc1`, the AC50 [7] was > 52 µM (inactive), the AC50 [8] was 7.86 µM (active) and the AC50 [9] was 22.7 µM (active). The AC50 [10] was 0.825 µM (active), the AC50 [11] was 7.74 µM (active) and the AC50 [12] was > 100 µM (inactive). The AC50 [13] was 1.04 µM (active), the AC50 [14] was 5.97 µM (active) and the AC50 [15] was 1.35 µM (active). For the same compound, the AC50 [16] was 1.19 µM (active).

For `CCCCN1C(=O)NC(=O)/C(=C(O)\C=C\c2ccc3c(c2)OCO3)C1=O`, the EC50 (Transthyretin) was > 167 µM (inactive), the EC50 [17] was 11.5 µM (active) and the EC50 [18] was 9.12 µM (inconclusive).

In the case of `COc1ccc(NC(=O)C(=O)c2cn(CC(=O)N3CCCC3)c3ccccc23)cc1`, the EC50 [19] is reported as 0.681 µM (active), the EC50 (BJ [20]) is reported as 2.34 µM (inconclusive) and the EC50 (BJ [21]) is reported as 1.54 µM (active). For the same compound, the EC50 [22] was 0.269 µM (inconclusive), the EC50 (cells [23]) was 0.515 µM (active) and the EC50 [24] was < 0.1 µM (active). For the same compound, the AC50 [25] was 0.143 µM (active), the EC50 (BJ [26]) was 2.77 µM (active) and the EC50 [27] was 2.25 µM (active). For the same compound, the EC50 [28] was 0.323 µM (active).

With `O=C1C(=C2CCc3ccccc32)Cc2ccccc21` the EC50 [5] was > 67.4 µM (inactive) and the EC50 (cells [6]) was > 67.4 µM (inactive).

With `O=C(N/N=C/c1ccc(Cl)cc1)c1sccc1OCc1ccc(F)cc1` the EC50 [19] was > 3.8 µM (not active), the EC50 [22] was 10.2 µM (active) and the EC50 (cells [23]) was 1.3 µM (active). For the same compound, the EC50 [29] was < 0.1 µM (active), the EC50 [24] was < 0.1 µM (active) and the AC50 [25] was 22.3 µM (active). The EC50 [28] was 0.889 µM (active).

In the case of `COc1ccc(S(=O)(=O)N2CCCCN3[C@@H](CO)[C@@H](c4ccc(C5=CCCCC5)cc4)[C@@H]3C2)cc1`, the AC50 [30] is reported as 10.2 µM (active) and the AC50 [10] is reported as 0.972 µM (active).

In the case of `O=C1C(NS(=O)(=O)c2ccc(Br)s2)=C(N2CCSCC2)C(=O)c2ccccc21`, the AC50 [3] is reported as > 70 µM (inactive) and the AC50 [4] is reported as > 70 µM (inactive).

In the case of `COc1ccc(NC(=O)N(C)C[C@H]2Oc3ccc(NS(=O)(=O)c4ccc(F)cc4)cc3C(=O)N([C@@H](C)CO)C[C@H]2C)cc1`, the AC50 [31] is reported as > 30 µM (inactive).

With `O=S1(=O)N[C@@H](Cc2ccccc2)COc2cccc(N3CCCC3)c21` the AC50 [2] was > 30 µM (inactive).

For `O=C(C[C@@H]1C[C@H]2c3cc(NS(=O)(=O)c4ccc(F)cc4)ccc3O[C@H]2[C@H](CO)O1)NCc1ccc(-c2ccccc2)cc1`, the AC50 [32] was 17.6 µM (active), the AC50 (Paired box protein Pax-8) was 3.44 µM (active) and the AC50 [33] was 14.8 µM (active). The AC50 [31] was > 30 µM (inactive), the AC50 [34] was 9.15 µM (active) and the AC50 [35] was 10.6 µM (active). For the same compound, the AC50 [36] was 14.6 µM (active).

For `COc1ccc(N(CC(O)Cn2c3ccccc3c3ccccc32)S(=O)(=O)c2ccccc2)cc1` (stereo unspecified), the IC50 [37] was > 69.5 µM (inactive), the IC50 [38] was > 69.5 µM (inactive) and the IC50 [39] was > 69.5 µM (inactive).

With `COC(=O)C1=C(C)N(Cc2ccccc2C(F)(F)F)C(NCc2ccccc2)=NC1CCc1ccccc1` (stereo unspecified) the IC50 [1] was > 96.6 µM (inactive).

With `COc1ccccc1S(=O)(=O)N(C)C[C@@H]1OCc2ccccc2-c2c(n(C)c3ccccc23)C(=O)N([C@H](C)CO)C[C@@H]1C` the AC50 [30] was 36.7 µM (active), the AC50 [10] was 0.729 µM (active) and the AC50 [12] was 89.2 µM (active). For the same compound, the AC50 [13] was 0.423 µM (active), the AC50 [15] was 0.548 µM (active) and the AC50 [16] was 0.561 µM (active).
